The text below walks through data of ChEMBL document CHEMBL1201862, “PubChem BioAssay data set” (2004).

The structures appear in SMILES notation.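 Grown in 96-well plates, cells were treated for 48 hours with each compound at five concentrations. Insufficient inhibition: endpoint recorded as highest concentration tested. GI50: concentration for 50% inhibition of growth.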 Activity calls are given as the source filed them. No stated cut-off is given here; in the data, active = GI50 up to about 1.1 µM and inactive = higher.

Some test systems named below: UO-31; MCF7; LOX IMVI; TK-10; OVCAR-3; SW-620; NCI-H460; HCC 2998; MDA-MB-435; MOLT-4; M14; K562; COLO 205; A549; NCI-H522; SK-OV-3; SN12C; SF-295; MDA-N; HOP-62.
Assay in all cases: growth of human tumour cells (NCI), 48 h

As for `COc1ccccc1NS(=O)(=O)c1ccc2ncn(NS(=O)(=O)c3ccc(Cl)cc3)c(=O)c2c1`, the GI50 was 35.2 µM (inactive) in the experiment on UO-31; > 100 µM (inactive) in the experiment with MCF7; > 100 µM (inactive) in the experiment with LOX IMVI; > 100 µM (inactive) in the experiment on TK-10; > 100 µM (inactive) with OVCAR-3; > 100 µM (inactive) in the experiment with SW-620. Moreover, the GI50 with NCI-H460 was > 100 µM (inactive); with HCC 2998, > 100 µM (inactive); in the experiment on MDA-MB-435, > 100 µM (inactive); in the experiment on MOLT-4, > 100 µM (inactive); in the experiment on M14 it was 5.86 µM (inactive); in the experiment on K562 it was 3.36 µM (inactive). Further, the GI50 is > 100 µM (inactive) with COLO 205; 75 µM (inactive) with A549; > 100 µM (inactive) with NCI-H522; > 100 µM (inactive) in the experiment on SK-OV-3; > 100 µM (inactive) in the experiment on SN12C; 17.7 µM (inactive) with SF-295. Also, the GI50 was 67.9 µM (inactive) in the experiment on MDA-N and > 100 µM (inactive) in the experiment on HOP-62.
Turning to `O=C1c2c(ccc3c2CCC3)CC12Cc1ccccc1C2`, the GI50 is 5.27 µM (inactive) with UO-31; 27.5 µM (inactive) with MCF7; 12.7 µM (inactive) with LOX IMVI; 21.5 µM (inactive) in the experiment on TK-10; 17.7 µM (inactive) in the experiment on OVCAR-3; 8.41 µM (inactive) in the experiment with SW-620. Further, the GI50 is 7.03 µM (inactive) in the experiment with NCI-H460; 22 µM (inactive) in the experiment on HCC 2998; 13.2 µM (inactive) in the experiment on MDA-MB-435; 5.04 µM (inactive) in the experiment with MOLT-4; 19.8 µM (inactive) in the experiment on M14; 20.5 µM (inactive) in the experiment on K562. The GI50 is 16.6 µM (inactive) in the experiment on COLO 205; 22.3 µM (inactive) in the experiment with A549; 11.6 µM (inactive) with NCI-H522; 17.9 µM (inactive) in the experiment on SK-OV-3; 19.5 µM (inactive) in the experiment on SN12C; 91.4 µM (inactive) with SF-295. The GI50 is 2.94 µM (inactive) in the experiment on MDA-N and 20.9 µM (inactive) in the experiment with HOP-62.
As for `c1ccc(/C(=N\Nc2nc3ccccc3s2)c2ccccn2)cc1`, the GI50 in the experiment on UO-31 is 0.0843 µM (active); with MCF7, 0.317 µM (active); in the experiment on LOX IMVI, 4.04 µM (inactive); with TK-10, 1.38 µM (inactive); in the experiment on OVCAR-3, 0.0948 µM (active); with SW-620, 3.18 µM (inactive). The GI50 with NCI-H460 is 1.97 µM (inactive); in the experiment on HCC 2998 it was 14.4 µM (inactive); in the experiment with MDA-MB-435, 5.68 µM (inactive); in the experiment with MOLT-4, 0.346 µM (active); with M14, 3.14 µM (inactive); in the experiment on K562, 1.72 µM (inactive). Moreover, the GI50 in the experiment on COLO 205 was 1.37 µM (inactive); in the experiment with A549, 3.09 µM (inactive); in the experiment with NCI-H522, 2.71 µM (inactive); in the experiment with SK-OV-3 it was 8.28 µM (inactive); with SN12C, 2.79 µM (inactive); in the experiment on SF-295, 5.19 µM (inactive). The GI50 with MDA-N is 4.94 µM (inactive); in the experiment with HOP-62, 6.47 µM (inactive).
With `COCOc1cc(OC)ccc1C=O`, the GI50 in the experiment with UO-31 is 64 µM (inactive); in the experiment on MCF7, 24.5 µM (inactive); in the experiment with LOX IMVI it was 53 µM (inactive); in the experiment on TK-10, 31.6 µM (inactive); with OVCAR-3 it was 20.9 µM (inactive); in the experiment with SW-620, 32.8 µM (inactive). Further, the GI50 in the experiment with NCI-H460 is 38.5 µM (inactive); in the experiment with HCC 2998, 24.2 µM (inactive); in the experiment with MDA-MB-435, 8.39 µM (inactive); in the experiment with MOLT-4, 37.2 µM (inactive); in the experiment on M14, 35.2 µM (inactive); in the experiment on K562 it was 23.9 µM (inactive). In addition, the GI50 with COLO 205 is 24.9 µM (inactive); in the experiment on A549 it was > 100 µM (inactive); in the experiment with NCI-H522 it was 27.6 µM (inactive); with SK-OV-3, 62.4 µM (inactive); with SN12C, 34.5 µM (inactive); with SF-295, 39 µM (inactive). For the same molecule, the GI50 is 5.58 µM (inactive) in the experiment with MDA-N and 72.3 µM (inactive) in the experiment on HOP-62.
For the molecule `COC(=O)[C@H](Cc1ccc(OC(C)(C)C)cc1)N[C@H](C)C(=O)N[C@@H](Cc1ccccc1)C(=O)OCc1ccccc1`, the GI50 in the experiment with UO-31 was 14.8 µM (inactive); with MCF7, 34.5 µM (inactive); with LOX IMVI, 34.4 µM (inactive); with TK-10, > 100 µM (inactive); in the experiment with OVCAR-3, 86.3 µM (inactive); with SW-620, > 100 µM (inactive). Moreover, the GI50 is > 100 µM (inactive) with NCI-H460; > 100 µM (inactive) in the experiment with HCC 2998; 82.8 µM (inactive) in the experiment on MDA-MB-435; 20 µM (inactive) in the experiment with MOLT-4; 52.4 µM (inactive) with M14; 25.6 µM (inactive) in the experiment with K562. The GI50 in the experiment on COLO 205 was 96.6 µM (inactive); in the experiment with A549, 46.6 µM (inactive); with NCI-H522 it was > 100 µM (inactive); in the experiment on SK-OV-3, > 100 µM (inactive); in the experiment on SN12C, 26.9 µM (inactive); in the experiment with SF-295, > 100 µM (inactive). The GI50 in the experiment on MDA-N and in the experiment with HOP-62 was > 100 µM (inactive) each time.
In the case of `Cc1ccc(C(=O)OC(C)C)cc1/N=N/N(C)C`, the GI50 was 70 µM (inactive) in the experiment with UO-31; > 100 µM (inactive) with MCF7; > 70 µM (inactive) with LOX IMVI; > 100 µM (inactive) in the experiment with TK-10; 46 µM (inactive) in the experiment on OVCAR-3; > 100 µM (inactive) in the experiment on SW-620. For the same molecule, the GI50 in the experiment with NCI-H460, in the experiment on HCC 2998, in the experiment with MDA-MB-435, with MOLT-4, in the experiment with M14 and with K562 was > 100 µM (inactive) in each case. The GI50 in the experiment with COLO 205 was > 100 µM (inactive); in the experiment with A549 it was > 100 µM (inactive); in the experiment with NCI-H522 it was 31.1 µM (inactive); in the experiment with SK-OV-3, > 100 µM (inactive); in the experiment on SN12C, 97.5 µM (inactive); in the experiment on SF-295, 58.6 µM (inactive). The GI50 in the experiment with MDA-N was > 100 µM (inactive); in the experiment on HOP-62 it was 97.5 µM (inactive).
As for `COC(=O)c1c(C)cccc1C1CN=NC12Cc1cc(C)cc(C)c1C2=O` (stereo not given), the GI50 in the experiment on UO-31 is 28.4 µM (inactive); in the experiment with MCF7, 6.85 µM (inactive); with LOX IMVI, 17 µM (inactive); in the experiment with TK-10, 32.4 µM (inactive); in the experiment with OVCAR-3, 28.9 µM (inactive); with SW-620 it was 48.5 µM (inactive). Also, the GI50 with NCI-H460 is 32.1 µM (inactive); in the experiment on HCC 2998 it was 22.9 µM (inactive); in the experiment on MDA-MB-435, 37.2 µM (inactive); in the experiment with MOLT-4, 32.1 µM (inactive); in the experiment with M14 it was 46.1 µM (inactive); in the experiment on K562, 30.2 µM (inactive). The GI50 is 17.2 µM (inactive) with COLO 205; 37.1 µM (inactive) in the experiment with A549; 9.46 µM (inactive) in the experiment with NCI-H522; 38.5 µM (inactive) in the experiment on SK-OV-3; 41.8 µM (inactive) with SN12C; 35.1 µM (inactive) with SF-295. Also, the results for the GI50 with MDA-N and in the experiment with HOP-62 were 37.6 µM (inactive) and 44 µM (inactive), respectively.
Turning to `CC(C)CC(NC(O)[BH2-][N+](C)(C)C)C(=O)NC(Cc1ccccc1)C(=O)N[C@H]1c2ccsc2/C(=N/O)[C@H]1O` (stereo not given in full), the GI50 in the experiment with UO-31, with MCF7, with LOX IMVI, in the experiment with TK-10, in the experiment on OVCAR-3 and with SW-620 was > 100 µM (inactive) each time. The GI50 in the experiment on NCI-H460, with HCC 2998, in the experiment on MDA-MB-435, in the experiment with MOLT-4, with M14 and in the experiment on K562 was > 100 µM (inactive) in each case. The GI50 in the experiment with COLO 205, with A549, with NCI-H522, with SK-OV-3, in the experiment on SN12C and with SF-295 was > 100 µM (inactive) in each case. The GI50 in the experiment with MDA-N and with HOP-62 was > 100 µM (inactive) throughout.
In the case of `O=C1NC(=O)C(F)(n2cc(F)c(=O)[nH]c2=O)C(O)N1` (stereo not given), the GI50 in the experiment with UO-31, in the experiment with MCF7, with LOX IMVI, in the experiment on TK-10, in the experiment on OVCAR-3 and with SW-620 was > 10 µM (inactive) throughout. Further, the GI50 in the experiment with NCI-H460, in the experiment with HCC 2998, with MDA-MB-435, in the experiment on MOLT-4, in the experiment on M14 and with K562 was > 10 µM (inactive) each time. The GI50 with COLO 205, with A549, in the experiment on NCI-H522, with SK-OV-3, in the experiment with SN12C and in the experiment with SF-295 was > 10 µM (inactive) throughout. For the same molecule, the GI50 with MDA-N and in the experiment with HOP-62 was > 10 µM (inactive) each time.
With `CCCN(CCC)C(=O)c1c(Cl)c2cccnc2n2c(C)cnc12`, the GI50 with UO-31 is 38.8 µM (inactive); with MCF7, 47.9 µM (inactive); in the experiment with LOX IMVI it was > 100 µM (inactive); in the experiment on TK-10, > 100 µM (inactive); in the experiment with OVCAR-3 it was 47.9 µM (inactive); with SW-620, 23.2 µM (inactive). The GI50 with NCI-H460 was 76.9 µM (inactive); in the experiment on HCC 2998, 97.9 µM (inactive); in the experiment on MDA-MB-435, 27.2 µM (inactive); in the experiment with MOLT-4, 33.3 µM (inactive); with M14, 61.2 µM (inactive); in the experiment on K562 it was 26.3 µM (inactive). Further, the GI50 in the experiment on COLO 205 was 49.5 µM (inactive); with A549, 48.8 µM (inactive); in the experiment with NCI-H522, > 100 µM (inactive); in the experiment with SK-OV-3, 58.9 µM (inactive); in the experiment on SN12C, > 100 µM (inactive); in the experiment with SF-295, > 100 µM (inactive). Besides, the GI50 is 23.6 µM (inactive) in the experiment on MDA-N and > 100 µM (inactive) with HOP-62.
